Experimental data reported in PubChem BioAssay (NCI).
Values joined by “and” are separate entries in the source; they are usually repeats but may differ in a detail not shown here. Identical values can stand only once.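 All cell lines were grown in 96-well plates and treated with compound for 48 hours. GI50 is the concentration that inhibits growth by half. TGI: total growth inhibition.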 Active and inactive are the calls of the source. Rule as the data show it: active = GI50 below about 0.43 µM; inactive = the rest.

What was measured:
Assay in all cases: growth of human tumour cells (NCI), 48 h
[1] = tested on: LXFL 529 NSCLC
[2] = tested on: M19-MEL melanoma
[3] = tested on: SNB-78 CNS
[4] = tested on: DMS 273 small cell lung
[5] = tested on: DLD-1 colon
[6] = tested on: HOP-18 NSCLC
[7] = tested on: KM20L2 colon
[8] = tested on: MDA-N
[9] = tested on: XF 498 CNS

| SMILES | TGI [1] | TGI [2] | TGI [3] | TGI [4] | TGI [5] | TGI [6] | TGI [7] | TGI [8] | TGI [9] | also measured |
| --- | --- | --- | --- | --- | --- | --- | --- | --- | --- | --- |
| COc1cc2nncc(Sc3cnnc4ccccc34)c2cc1OC | > 100 µM | > 100 µM | 92.4 µM | 81.7 µM | 49.6 µM | 37.8 µM | 68.3 µM |  |  |  |
| CC1=C(C(=O)NC2CCCCC2)CC(C(=O)NC2CCCCC2)=C(C)N1 |  |  |  |  |  |  |  | > 100 µM |  |  |
| CC(C)N(C(C)C)[PH+]1O[PH+](N(C(C)C)C(C)C)O[PH+](N(C(C)C)C(C)C)O[PH+](N(C(C)C)C(C)C)O[PH+](N(C(C)C)C(C)C)O1.[C-]#[O+].[C-]#[O+].[C-]#[O+].[C-]#[O+].[C-]#[O+].[C-]#[O+].[C-]#[O+].[Cr].[Cr] (stereo not drawn) | > 100 µM | > 100 µM | > 100 µM | > 100 µM | > 100 µM | > 100 µM | > 100 µM |  | > 100 µM | GI50 [1]: > 100 µM; GI50 [2]: > 100 µM; GI50 [3]: > 100 µM; GI50 [4]: > 100 µM; GI50 [9]: > 100 µM; GI50 [5]: > 100 µM; GI50 [6]: > 100 µM; GI50 [7]: > 100 µM |
| COC(=O)c1ccc2c(c1)C(NC(C)=O)CCc1cc(OC)c(OC)c(OC)c1-2 (stereo not drawn) | > 100 µM | > 100 µM | > 4.64 µM | > 100 µM | > 100 µM | > 100 µM | < 0.01 µM | < 0.01 µM | > 100 µM |  |
| COC(=O)c1nc(NN)[nH]c(=O)c1CCCCCc1c(C(=O)OC)[nH]c(NN)cc1=O | > 100 µM | > 100 µM | > 100 µM | > 100 µM | > 100 µM | > 100 µM | > 100 µM |  | > 100 µM |  |
| CC(C)c1cccc(C(C)C)c1NC(=O)C(=O)C(C(=O)c1ccccc1-c1ccccc1)C1OC(=O)c2ccccc21 (stereo not drawn) | 34.6 µM | 63.6 µM | 73.2 µM | 60 µM |  |  | 50.8 µM |  | 26 µM |  |
| Cc1nc2c(n1CC(C)(C)C)C(=O)c1ccccc1C2=O | > 100 µM |  | > 100 µM | > 100 µM | > 100 µM |  | > 100 µM |  | > 100 µM |  |
| CSc1ccc(/C=C2\CNC/C(=C\c3ccc(SC)cc3)C2=O)cc1 | 68.6 µM |  | 150 µg/mL | 150 µg/mL | > 371 µM and 150 µg/mL | > 371 µM |  |  | 16.8 µM | GI50 [3]: 28.8 µg/mL; GI50 [4]: 46.2 µg/mL; outcome [9]: inactive; GI50 [5]: 45.1 µM and 142 µg/mL; GI50 [6]: 111 µM; outcome [6]: inactive; outcome [7]: inactive |
| N=C(N)SCc1cn2ccccc2n1 |  | > 100 µM | > 100 µM | > 100 µM | > 100 µM | > 100 µM |  |  | > 100 µM |  |
| CC(O)CNC1=CC(=O)C(=O)c2ccccc21 (stereo not drawn) |  |  |  |  |  |  |  | 34.5 µM |  |  |
| COc1cc(C2c3cc4c(cc3[C@@H](Nc3ccc(N(C)C)cc3)[C@H]3COC(=O)C23)OCO4)cc(OC)c1O (stereo partly drawn) | 11.1 µM and 20.6 µM | 12.3 µM and 16.5 µM | 22.2 µM and 37.6 µM | 0.877 µM and 2.47 µM | 9.22 µM and 12.4 µM | 17 µM | 3.02 µM and 10.7 µM |  | 10.9 µM and 13.3 µM | GI50 [1]: 6.16 µM; GI50 [2]: 2.53 µM; GI50 [3]: 8.2 µM; GI50 [4]: 0.202 µM; GI50 [9]: 2.27 µM; GI50 [5]: 2.19 µM; GI50 [7]: 2.41 µM |
| C=C1C(=O)O[C@@H]2C[C@@]3(C)CC(=O)C=C(C)[C@@H]3C[C@H]12 |  |  |  |  |  |  |  | 17.2 µM |  |  |
| CCc1nc(N)nc(N)c1-c1ccc([N+](=O)[O-])c(NCc2ccccc2)c1 |  |  |  |  |  |  |  | 34.8 µM |  |  |
| CSc1nc2c(c(O)c(C)c(=O)n2C2OC(COC(C)=O)C(OC(C)=O)C(OC(C)=O)C2OC(C)=O)c(=O)n1C (stereo not drawn) | > 100 µM |  | > 100 µM | > 100 µM | > 100 µM | > 100 µM | > 100 µM |  | > 100 µM |  |
| O=C(C(=O)c1ccc(Cc2ccc(C(=O)C(=O)c3ccccc3)cc2)cc1)c1ccccc1 | > 100 µM | > 100 µM | > 100 µM | > 100 µM | > 100 µM | > 100 µM | > 100 µM |  |  |  |
| Clc1ccc(COC(Cn2ccnc2)c2ccc(Cl)cc2Cl)cc1 (stereo not drawn) |  |  |  |  |  |  |  | 27.4 µM and 25.4 µM |  |  |
| N#CC(C#N)SCc1ccccc1 | > 100 µM | > 100 µM | > 91.7 µM | > 100 µM | > 100 µM |  | 63.4 µM |  |  |  |
| CC(CO)[C@H]1OC(=O)C=C2[C@@]13O[C@@H]3[C@H]1OC(=O)[C@@]3(C)[C@H]4O[C@H]4C[C@@]2(C)[C@@H]13 (stereo partly drawn) |  |  |  |  |  |  |  | 14 µM |  |  |
| COc1cc(-c2oc3ccccc3c(=O)c2O)cc(OC)c1OC |  |  |  |  |  |  |  | > 100 µM |  |  |
| CC1(C)CCC(C)(C)c2cc(C(=O)Nc3ccc(C(=O)O)cc3)ccc21 |  |  |  |  |  |  |  | > 62.8 µM |  |  |
| O=c1nc(-c2ccccc2)c2c3c(cccn13)CCC2 | > 100 µM | > 100 µM | > 100 µM | > 100 µM | > 100 µM |  |  |  | > 100 µM |  |
| O=C1c2ccccc2N2OC3(N4CCCC4)CCCC3C12c1ccccc1 (stereo not drawn) | > 100 µM | > 100 µM | > 100 µM | > 100 µM | > 100 µM | > 100 µM | > 100 µM |  | > 100 µM |  |
